Test results: PubChem BioAssay (NCI)
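Five compound concentrations were applied to cells in 96-well plates for 48 hours; endpoints were derived by simple linear interpolation of the resulting dose-response curve. The concentration for full growth arrest is given as TGI.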

Experiments:
Test in all cases: NCI tumour cell line growth inhibition, 48 h
[1] = test system: 786-0 renal
[2] = test system: A498 renal
[3] = test system: A549 NSCLC
[4] = test system: ACHN renal
[5] = test system: BT-549 breast
[6] = test system: CAKI-1 renal
[7] = test system: COLO 205 colon
[8] = test system: DU-145 prostate
[9] = test system: EKVX NSCLC
[10] = test system: HCT-116 colon
[11] = test system: HCT-15 colon
[12] = test system: HL-60(TB) leukemia
[13] = test system: HOP-62 NSCLC
[14] = test system: HOP-92 NSCLC
[15] = test system: HS 578T breast
[16] = test system: HT29 colon
[17] = test system: IGROV1 ovarian
[18] = test system: K-562 leukemia
[19] = test system: KM12 colon
[20] = test system: LOX IMVI melanoma
[21] = test system: M14 melanoma
[22] = test system: MALME-3M melanoma
[23] = test system: MCF7 breast
[24] = test system: MDA-MB-231 breast
[25] = test system: MDA-MB-435
[26] = test system: MDA-N
[27] = test system: MOLT-4 leukemia
[28] = test system: NCI-H226 lung
[29] = test system: NCI-H23 lung
[30] = test system: NCI-H460 lung
[31] = test system: NCI-H522 lung
[32] = test system: NCI/ADR-RES ovarian
[33] = test system: OVCAR-3 ovarian
[34] = test system: OVCAR-4 ovarian
[35] = test system: OVCAR-5 ovarian
[36] = test system: OVCAR-8 ovarian
[37] = test system: PC-3 prostate
[38] = test system: RPMI-8226 leukemia
[39] = test system: RXF 393 renal
[40] = test system: SF-268 CNS
[41] = test system: SF-295 CNS
[42] = test system: SF-539 CNS
[43] = test system: SK-MEL-2 melanoma
[44] = test system: SK-MEL-28 melanoma
[45] = test system: SK-MEL-5 melanoma
[46] = test system: SK-OV-3 ovarian
[47] = test system: SN12C renal
[48] = test system: SNB-19 CNS
[49] = test system: SNB-75 CNS
[50] = test system: SR leukemia
[51] = test system: SW-620 colon
[52] = test system: T-47D breast
[53] = test system: TK-10 renal
[54] = test system: U251 CNS
[55] = test system: UACC-257 melanoma
[56] = test system: UACC-62 melanoma
[57] = test system: UO-31 renal
[58] = test system: CCRF-CEM leukemia
[59] = test system: HCC-2998 colon

Q: For `C=C(C)c1ccccc1` (tested in a mixture with another compound), which TGI [1] is on record?
A: The TGI was over 100 µM.

Q: What about the TGI [2] of the same compound?
A: Its TGI is over 100 µM.

Q: And the TGI [3]?
A: The TGI was over 100 µM.

Q: And the TGI [4]?
A: Its TGI is over 100 µM.

Q: And the TGI [5]?
A: The TGI was over 100 µM.

Q: What about the TGI [6] of the same compound?
A: Its TGI is over 100 µM.

Q: What about the TGI [7] of the same compound?
A: The TGI was over 100 µM.

Q: What about the TGI [8] of the same compound?
A: Its TGI is over 100 µM.

Q: And the TGI [9]?
A: The TGI was over 100 µM.

Q: And the TGI [10]?
A: The TGI was over 100 µM.

Q: What about the TGI [11] of the same compound?
A: The TGI was over 100 µM.

Q: And the TGI [12]?
A: The TGI was over 100 µM.

Q: And the TGI [13]?
A: Its TGI is over 100 µM.

Q: And the TGI [14]?
A: The TGI was over 100 µM.

Q: And the TGI [15]?
A: The TGI was over 100 µM.

Q: And the TGI [16]?
A: The TGI was over 100 µM.

Q: What about the TGI [17] of the same compound?
A: The TGI was over 100 µM.

Q: And the TGI [18]?
A: The TGI was over 100 µM.

Q: And the TGI [19]?
A: Its TGI is over 100 µM.

Q: What about the TGI [20] of the same compound?
A: The TGI was over 100 µM.

Q: What about the TGI [21] of the same compound?
A: The TGI was over 100 µM.

Q: What about the TGI [22] of the same compound?
A: Its TGI is over 100 µM.

Q: What about the TGI [23] of the same compound?
A: The TGI was over 100 µM.

Q: And the TGI [24]?
A: Its TGI is over 100 µM.

Q: And the TGI [25]?
A: Its TGI is over 100 µM.

Q: And the TGI [26]?
A: The TGI was over 100 µM.

Q: What about the TGI [27] of the same compound?
A: The TGI was over 100 µM.

Q: And the TGI [28]?
A: Its TGI is over 100 µM.

Q: What about the TGI [29] of the same compound?
A: The TGI was over 100 µM.

Q: What about the TGI [30] of the same compound?
A: The TGI was over 100 µM.

Q: What about the TGI [31] of the same compound?
A: The TGI was over 100 µM.

Q: And the TGI [32]?
A: Its TGI is over 100 µM.

Q: And the TGI [33]?
A: Its TGI is over 100 µM.

Q: What about the TGI [34] of the same compound?
A: The TGI was over 100 µM.

Q: What about the TGI [35] of the same compound?
A: Its TGI is over 100 µM.

Q: And the TGI [36]?
A: Its TGI is over 100 µM.

Q: What about the TGI [37] of the same compound?
A: Its TGI is over 100 µM.

Q: And the TGI [38]?
A: Its TGI is over 100 µM.

Q: And the TGI [39]?
A: Its TGI is over 100 µM.

Q: And the TGI [40]?
A: Its TGI is over 100 µM.

Q: And the TGI [41]?
A: Its TGI is over 100 µM.

Q: And the TGI [42]?
A: Its TGI is over 100 µM.

Q: And the TGI [43]?
A: Its TGI is over 100 µM.

Q: What about the TGI [44] of the same compound?
A: Its TGI is over 100 µM.

Q: What about the TGI [45] of the same compound?
A: Its TGI is over 100 µM.

Q: And the TGI [46]?
A: The TGI was over 100 µM.

Q: And the TGI [47]?
A: The TGI was over 100 µM.

Q: What about the TGI [48] of the same compound?
A: The TGI was over 100 µM.

Q: And the TGI [49]?
A: Its TGI is over 100 µM.

Q: What about the TGI [50] of the same compound?
A: The TGI was over 100 µM.

Q: And the TGI [51]?
A: The TGI was over 100 µM.

Q: What about the TGI [52] of the same compound?
A: The TGI was over 100 µM.

Q: And the TGI [53]?
A: Its TGI is over 100 µM.

Q: And the TGI [54]?
A: The TGI was over 100 µM.

Q: What about the TGI [55] of the same compound?
A: The TGI was over 100 µM.

Q: What about the TGI [56] of the same compound?
A: The TGI was over 100 µM.

Q: And the TGI [57]?
A: The TGI was over 100 µM.

Q: Which results are given for `CCCCCCCC/C=C(\Br)C(O)C(Br)Br` (stereo not given)?
A: TGI [1]: 39.7 µM; TGI [2]: 68.1 µM; TGI [3]: > 100 µM; TGI [4]: 51.9 µM; TGI [5]: 44.8 µM; TGI [6]: 63.7 µM; TGI [58]: 35.5 µM; TGI [7]: 41 µM; TGI [8]: > 100 µM; TGI [9]: 92.9 µM; TGI [59]: 48 µM; TGI [10]: > 100 µM; TGI [11]: 47.2 µM; TGI [13]: 47.6 µM; TGI [14]: 42.9 µM; TGI [15]: 74.7 µM; TGI [17]: 59.1 µM; TGI [18]: > 100 µM; TGI [19]: 59.6 µM; TGI [20]: 41.2 µM; TGI [21]: 48.5 µM; TGI [22]: 43 µM; TGI [23]: 98.3 µM; TGI [24]: > 100 µM; TGI [25]: 59.1 µM; TGI [26]: 54.1 µM; TGI [27]: > 100 µM; TGI [29]: 47.7 µM; TGI [30]: 86.8 µM; TGI [31]: 38.4 µM; TGI [32]: 57.2 µM; TGI [33]: 34.8 µM; TGI [34]: 85.9 µM; TGI [35]: 43.6 µM; TGI [36]: 49.5 µM; TGI [37]: > 100 µM; TGI [38]: > 100 µM; TGI [39]: 37.8 µM; TGI [40]: 53.1 µM; TGI [41]: 41.5 µM; TGI [43]: 63.7 µM; TGI [44]: > 100 µM; TGI [45]: 34 µM; TGI [46]: 90.6 µM; TGI [47]: 36.6 µM; TGI [48]: > 100 µM; TGI [49]: > 100 µM; TGI [50]: > 100 µM; TGI [51]: 34.2 µM; TGI [52]: > 100 µM; TGI [53]: > 100 µM; TGI [54]: > 100 µM; TGI [55]: 76.1 µM; TGI [56]: 41.6 µM; TGI [57]: 38.8 µM

Q: For `CN(C)C(=S)/N=C1\SC(=Nc2ccccc2)C(=Nc2ccccc2)N1c1ccc([N+](=O)[O-])cc1`, which TGI [2] is on record?
A: The TGI was over 100 µM.

Q: And the TGI [5]?
A: Its TGI is over 100 µM.

Q: What about the TGI [6] of the same compound?
A: Its TGI is over 100 µM.

Q: What about the TGI [58] of the same compound?
A: Its TGI is over 100 µM.

Q: What about the TGI [7] of the same compound?
A: Its TGI is over 100 µM.

Q: What about the TGI [8] of the same compound?
A: Its TGI is over 100 µM.

Q: What about the TGI [59] of the same compound?
A: Its TGI is over 100 µM.

Q: What about the TGI [10] of the same compound?
A: Its TGI is over 100 µM.

Q: What about the TGI [11] of the same compound?
A: Its TGI is over 100 µM.

Q: And the TGI [12]?
A: The TGI was over 100 µM.

Q: What about the TGI [13] of the same compound?
A: Its TGI is over 100 µM.

Q: And the TGI [14]?
A: The TGI was over 100 µM.

Q: What about the TGI [15] of the same compound?
A: The TGI was over 100 µM.

Q: And the TGI [16]?
A: Its TGI is over 100 µM.

Q: What about the TGI [17] of the same compound?
A: Its TGI is over 100 µM.

Q: What about the TGI [18] of the same compound?
A: Its TGI is over 100 µM.

Q: What about the TGI [19] of the same compound?
A: Its TGI is over 100 µM.

Q: What about the TGI [21] of the same compound?
A: Its TGI is over 100 µM.

Q: And the TGI [22]?
A: Its TGI is over 100 µM.

Q: What about the TGI [23] of the same compound?
A: Its TGI is over 100 µM.

Q: What about the TGI [24] of the same compound?
A: The TGI was over 100 µM.

Q: And the TGI [25]?
A: Its TGI is over 100 µM.

Q: What about the TGI [26] of the same compound?
A: The TGI was over 100 µM.

Q: What about the TGI [27] of the same compound?
A: The TGI was over 100 µM.

Q: And the TGI [28]?
A: The TGI was over 100 µM.

Q: What about the TGI [29] of the same compound?
A: Its TGI is over 100 µM.

Q: What about the TGI [30] of the same compound?
A: The TGI was over 100 µM.

Q: What about the TGI [31] of the same compound?
A: The TGI was over 100 µM.

Q: And the TGI [32]?
A: Its TGI is over 100 µM.

Q: And the TGI [33]?
A: Its TGI is over 100 µM.

Q: And the TGI [35]?
A: Its TGI is over 100 µM.

Q: What about the TGI [36] of the same compound?
A: Its TGI is over 100 µM.

Q: And the TGI [37]?
A: The TGI was over 100 µM.

Q: What about the TGI [38] of the same compound?
A: Its TGI is over 100 µM.

Q: And the TGI [39]?
A: Its TGI is over 100 µM.

Q: And the TGI [41]?
A: Its TGI is over 100 µM.

Q: What about the TGI [43] of the same compound?
A: Its TGI is over 100 µM.

Q: What about the TGI [44] of the same compound?
A: The TGI was over 100 µM.

Q: What about the TGI [45] of the same compound?
A: The TGI was over 100 µM.

Q: And the TGI [46]?
A: The TGI was over 100 µM.

Q: What about the TGI [47] of the same compound?
A: Its TGI is over 100 µM.

Q: And the TGI [48]?
A: The TGI was over 100 µM.

Q: And the TGI [49]?
A: The TGI was over 100 µM.

Q: And the TGI [50]?
A: Its TGI is over 100 µM.

Q: And the TGI [52]?
A: The TGI was over 100 µM.

Q: What about the TGI [54] of the same compound?
A: The TGI was over 100 µM.

Q: And the TGI [56]?
A: The TGI was over 100 µM.

Q: And the TGI [57]?
A: Its TGI is over 100 µM.
